Patent publication US12390505B2, “Composition for preventing or treating obesity or diabetes, comprising acanthopanax senticosus extract and garcinia cambogia extract or compound isolated therefrom” (KOREA RESEARCH INSTITUTE OF BIOSCIENCE AND BIOTECHNOLOGY, priority 2020, dated 2025)

Columns and labels:
Format in all cases: in vivo, mouse
Settings in all cases: oral once daily 10 weeks, 50 mg/kg
[1] = Example 11 HFD mice: body fat reduction, white adipose tissue weight
Method: (§1) After adapting 8-week-old male C57b1/6 J mice to the basic diet (AIN-76A diet) for 2 weeks, and consuming Diet Induced Obesity Diet Formulas (D12451) 60 kcal % HFD diet for 2 weeks from 10 weeks of age, and then the test drug was administered when the average body weight reached 28 g or more. The animal breeding room environment of the mouse was maintained in a constant temperature (25±2° C.), constant humidity (50±5%) and a 12-hour photoperiod (light on 07:00˜19:00) in which the light and shade were controlled in an SPF environment. […] The test drug was dispersed in 0.5% Carboxymethyl cellulose (CMC) and administered in a volume of 0.2 ml, and the drug was administered orally by force into the stomach using a metal Zonde for oral administration.
After removing retroperitoneal white adipose tissue and intestines white adipose tissue of each experimental animal, the weight of adipose tissue was calculated.
(§2) Results obtained from various experiments are recorded as mean±standard error of mean (SEM), and significance verification is determined using the student's T-test analysis method. The data were analyzed using one-way ANOVA to determine a statistically significant variance between each group for each final point measured, and statistical significance between each group was determined using the nonparametric Mann-Whitney test and Dunnett's multiple comparison test (IBM SPSS statistics version 19.0 statistic software, Inc, IBM, USA).

[2] = Example 12 HFD mice: oral glucose tolerance test
Method: as §1
[…] Blood to be used for blood glucose measurement was collected from the tail vein of a mouse, and blood glucose was measured using a serum analyzer (Accutrend plus GCTL Cobas Roche, Germany).
as §2

[3] = Example 11 HFD mice: serum test
Method: as §1
Blood was collected by cardiac puncture to conduct a blood biochemical test after the end of the final experiment, and then plasma was separated by centrifugation at 3,000 rpm and 4° C. for 15 minutes within 30 minutes after blood collection, and then stored at −74° C. for blood chemistry and ELISA analysis. The contents of total cholesterol, high-density lipoprotein (HDL), low-density lipoprotein (LDL), triglyceride, FFA, glucose, and LDH, which are indicators of lipid content, were measured using an automated biochemical analyzer (Hitachi-720, Hitachi Medical, Japan). IGF-1 and Creatine were diluted in coating buffer, coated on microwells, and left overnight at 4° C. After washing each well with the buffer solution three times, 100 μl of serum (10-fold dilution) was dispensed, left at room temperature for 1 hour, and then washed twice with the buffer solution. Thereafter, 100 μl of the antibody avidin-HRP conjugate was treated, left at room temperature for 1 hour, and then washed again. 100 μl of the TMB substrate was dispensed, left in the dark for 30 minutes, treated with 50 μl of the stop solution, and absorbance was measured at a wavelength of 450 nm using an ELISA reader.
as §2

[4] = system: C/EBP-α mRNA; assay: Example 11 HFD mice: adipose tissue C/EBP-α mRNA analysis
Method: After adapting 8-week-old male C57b1/6 J mice to the basic diet (AIN-76A diet) for 2 weeks, and consuming Diet Induced Obesity Diet Formulas (D12451) 60 kcal % HFD diet for 2 weeks from 10 weeks of age, and then the test drug was administered when the average body weight reached 28 g or more. The animal breeding room environment of the mouse was maintained in a constant temperature (25±2° C.), constant humidity (50±5%) and a 12-hour photoperiod (light on 07:00˜19:00) in which the light and shade were controlled in an SPF environment. […]
RNA was extracted from tissues using RNAsolB (Tel-Test) solution, and cDNA and real-time PCR analysis were performed using One-step SYBR Green PCR kit (AB science). […] Real time quantitative PCR was performed using the Applied Biosystems 7500 Real-Time PCR system (Applied Biosystems, USA).
as §2

CN(C)C(=N)N=C(N)N [Met, Metformin]
Inhibition Rate (intestines WAT) [1]: 46% | Inhibition Rate (retroperitoneal white adipose tissue) [1]: 12% | Intestines WAT [1]: 0.55 ± 0.05 g | Retroperitoneal white adipose tissue [1]: 0.89 ± 0.06 g | Inhibition Rate (OGTT) [2]: 23% | OGTT (30 min-0 min, mg/dL) ([2]; glucose 1 g/kg): 148.0 ± 18.50^ mg/dL | Cholesterol [3]: 175.6 ± 9.03 mg/dL | Creatin [3]: 0.564 ± 0.011 mg/dL | Glucose [3]: 202.5 ± 7.98 mg/dL | HDL [3]: 88.1 ± 2.99 mg/dL | IGF-1 [3]: 1455.8 ± 138.07 pg/mL | Inhibition Rate (Cholesterol) [3]: 40% | Inhibition Rate (Creatin) [3]: 175% | Inhibition Rate (Glucose) [3]: 11% | Inhibition Rate (HDL) [3]: 7% | Inhibition Rate (IGF-1) [3]: 89% | Inhibition Rate (LDH) [3]: 122% | Inhibition Rate (LDL) [3]: 71% | Inhibition Rate (NEFA) [3]: 61% | Inhibition Rate (Triglyceride) [3]: 65% | LDH [3]: 592.0 ± 53.77 U/L | LDL [3]: 12.3 ± 0.80 mg/dL | NEFA [3]: 2.26 ± 0.10 mEq/L | Triglyceride [3]: 118.6 ± 5.90 mg/dL | Inhibition Rate (C/EBP-α mRNA) [4]: 75% | C/EBP-α mRNA expression in adipose tissue ([4]; GAPDH control): 1.153 ± 0.320
